Source: PubChem BioAssay AID328 (DTP/NCI, 2004)
Values joined by “and” are separate entries in the source; they are usually repeats but may differ in a detail not shown here. Equal entries are not always repeated. Toxic doses and inconclusive results are not listed.

System: BDF1 mice, P388 leukemia ip, median survival T/C
Assay: NCI In Vivo Anticancer Drug Screen. Data for tumor model P388 Leukemia (intraperitoneal) in B6D2F1 (BDF1) mice
Details: endpoint: median survival time, higher = longer survival
In short: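 Each value expresses how treatment altered survival: treated-mouse outcome over vehicle-mouse outcome, both groups bearing the transplanted tumour.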

[1] = dose: 100.0 mg/kg/injection, schedule: Q04DX003 (ip), vehicle: saline
[2] = dose: 200.0 mg/kg/injection, schedule: Q04DX003 (ip), vehicle: saline
[3] = dose: 400.0 mg/kg/injection, schedule: Q04DX003 (ip), vehicle: saline
[4] = dose: 25.0 mg/kg/injection, schedule: Q01DX009 (ip), vehicle: saline with Tween-80
[5] = dose: 50.0 mg/kg/injection, schedule: Q01DX009 (ip), vehicle: saline with Tween-80
[6] = dose: 100.0 mg/kg/injection, schedule: Q01DX009 (ip), vehicle: saline with Tween-80
[7] = dose: 200.0 mg/kg/injection, schedule: Q01DX009 (ip), vehicle: saline with Tween-80
[8] = dose: 100.0 mg/kg/injection, schedule: Q04DX003 (ip), vehicle: saline with Tween-80
[9] = dose: 200.0 mg/kg/injection, schedule: Q04DX003 (ip), vehicle: saline with Tween-80
[10] = dose: 100.0 mg/kg/injection, schedule: Q04DX003 (ip), vehicle: other
[11] = dose: 100.0 mg/kg/injection, schedule: Q04DX003 (ip), vehicle: Klucel (hydroxypropylcellulose) (HPC)

SMILES: Cc1ccccc1C(c1ccccc1C)c1ccccc1C(=O)O
- T/C (dose: 100.0 mg/kg/injection, schedule: Q01DX001 (ip), vehicle: Klucel (hydroxypropylcellulose) (HPC)): 113 % of control
- T/C (dose: 100.0 mg/kg/injection, schedule: Q01DX009 (ip), vehicle: saline): 100 % of control
- T/C [1]: 91 % of control
- T/C (dose: 200.0 mg/kg/injection, schedule: Q01DX001 (ip), vehicle: Klucel (hydroxypropylcellulose) (HPC)): 109 % of control
- T/C (dose: 200.0 mg/kg/injection, schedule: Q01DX009 (ip), vehicle: saline): 104 % of control
- T/C [2]: 100 % of control
- T/C (dose: 400.0 mg/kg/injection, schedule: Q01DX001 (ip), vehicle: Klucel (hydroxypropylcellulose) (HPC)): 109 % of control
- T/C (dose: 400.0 mg/kg/injection, schedule: Q01DX009 (ip), vehicle: saline): 95 % of control
- T/C [3]: 100 % of control

SMILES: O=C1OC2(CCCCC2)Cc2oc3ccccc3c(=O)c21
- T/C (dose: 50.0 mg/kg/injection, schedule: Q01DX005 (ip), vehicle: Klucel (hydroxypropylcellulose) (HPC)): 87 % of control
- T/C (dose: 200.0 mg/kg/injection, schedule: Q01DX005 (ip), vehicle: Klucel (hydroxypropylcellulose) (HPC)): 92 % of control

SMILES: Cc1nc(C(=O)O)c(=O)[nH]c1C
- T/C (dose: 50.0 mg/kg/injection, schedule: Q01DX009 (ip), vehicle: water): 114 % of control
- T/C (dose: 50.0 mg/kg/injection, schedule: Q04DX003 (ip), vehicle: water): 94 % of control
- T/C (dose: 100.0 mg/kg/injection, schedule: Q01DX009 (ip), vehicle: water): 122 % of control
- T/C (dose: 100.0 mg/kg/injection, schedule: Q04DX003 (ip), vehicle: water): 105 % of control
- T/C (dose: 200.0 mg/kg/injection, schedule: Q01DX009 (ip), vehicle: water): 121 % of control
- T/C (dose: 200.0 mg/kg/injection, schedule: Q04DX003 (ip), vehicle: water): 100 % of control

SMILES: N#CCCCCNC(=O)C1CCC(=O)N1 (stereo not drawn)
- T/C [1]: 111 % of control
- T/C [3]: 111 % of control

SMILES: CCCCC#CC(=O)OC
- T/C [4]: 116 % of control
- T/C [5]: 104 % of control
- T/C [6]: 100 % of control
- T/C [7]: 114 % of control

SMILES: COC1C(O)C(OC2CCC3(C)C(CCC4C3CCC3(C)C(C5=CC(=O)OC5)CCC43O)C2)OC(C)C1OC(C)=O (stereo not drawn)
- T/C (dose: 9.6 mg/kg/injection, schedule: Q01DX009 (ip), vehicle: saline with Tween-80): 115 % of control
- T/C (dose: 22.0 mg/kg/injection, schedule: Q01DX009 (ip), vehicle: saline with Tween-80): 108 % of control
- T/C (dose: 33.0 mg/kg/injection, schedule: Q01DX009 (ip), vehicle: saline with Tween-80): 100 % of control

SMILES: CCN(CC)CCC1(C#N)Cc2ccccc2N(CC)c2ccccc21 (stereo not drawn)
- T/C [6]: 107 % of control
- T/C [7]: 113 % of control

SMILES: COC(OC)c1cc(=O)[nH]c(NC(=O)C(Cl)Cl)n1
- T/C [8]: 112 % of control
- T/C [9]: 95 % of control
- T/C (dose: 400.0 mg/kg/injection, schedule: Q04DX003 (ip), vehicle: saline with Tween-80): 104 % of control

SMILES: Oc1cc(OCCCc2ccc(F)cc2)cc2ccc3ccccc3c12
- T/C [8]: 112 % of control
- T/C [9]: 86 % of control

SMILES: NC(=O)SCC(=O)Nc1ccc2ncccc2c1
- T/C (dose: 88.0 mg/kg/injection, schedule: Q01DX009 (ip), vehicle: saline): 122 % of control
- T/C (dose: 100.0 mg/kg/injection, schedule: Q04DX003 (ip), vehicle: saline sonified): 104 % of control
- T/C (dose: 132.0 mg/kg/injection, schedule: Q01DX009 (ip), vehicle: saline): 118 % of control
- T/C (dose: 200.0 mg/kg/injection, schedule: Q04DX003 (ip), vehicle: saline sonified): 100 % of control
- T/C (dose: 400.0 mg/kg/injection, schedule: Q04DX003 (ip), vehicle: saline sonified): 100 % of control

SMILES: COc1ccc(C(O)CN)cc1 (stereo not drawn)
- T/C [1]: 98 % of control
- T/C [2]: 97 % of control
- T/C [3]: 96 % of control

SMILES: O=C1/C(=C/c2ccco2)CCC2CC3(CCC12)OCCO3 (stereo not drawn)
- T/C [10]: 108 % of control
- T/C (dose: 200.0 mg/kg/injection, schedule: Q04DX003 (ip), vehicle: other): 91 % of control
- T/C (dose: 400.0 mg/kg/injection, schedule: Q04DX003 (ip), vehicle: other): 108 % of control

SMILES: CCN(CC)CCCC#CCN1CCCCC1
- T/C (dose: 25.0 mg/kg/injection, schedule: Q01DX009 (ip), vehicle: Klucel (hydroxypropylcellulose) (HPC)): 100 % of control
- T/C (dose: 25.0 mg/kg/injection, schedule: Q04DX003 (ip), vehicle: Klucel (hydroxypropylcellulose) (HPC)): 91 % of control
- T/C (dose: 50.0 mg/kg/injection, schedule: Q01DX009 (ip), vehicle: Klucel (hydroxypropylcellulose) (HPC)): 90 % of control
- T/C (dose: 50.0 mg/kg/injection, schedule: Q04DX003 (ip), vehicle: Klucel (hydroxypropylcellulose) (HPC)): 91 % of control
- T/C (dose: 100.0 mg/kg/injection, schedule: Q01DX009 (ip), vehicle: Klucel (hydroxypropylcellulose) (HPC)): 100 % of control
- T/C [11]: 91 % of control

SMILES: COP(=O)(O)/C(C)=N/NS(=O)(=O)c1ccc(C)cc1
- T/C (dose: 25.0 mg/kg/injection, schedule: Q01DX009 (ip), vehicle: other): 100 % of control
- T/C (dose: 50.0 mg/kg/injection, schedule: Q01DX009 (ip), vehicle: other): 103 % of control
- T/C (dose: 100.0 mg/kg/injection, schedule: Q01DX009 (ip), vehicle: other): 100 % of control
- T/C (dose: 200.0 mg/kg/injection, schedule: Q01DX009 (ip), vehicle: other): 100 % of control
- T/C (dose: 400.0 mg/kg/injection, schedule: Q01DX009 (ip), vehicle: other): 102 % of control

SMILES: Nc1cccc2c1C(=O)C=CC2=O
- T/C (dose: 1.15 mg/kg/injection, schedule: Q01DX009 (ip), vehicle: saline): 112 % of control
- T/C (dose: 2.3 mg/kg/injection, schedule: Q01DX009 (ip), vehicle: saline): 108 % of control
- T/C (dose: 3.25 mg/kg/injection, schedule: Q04DX003 (ip), vehicle: saline): 121 % of control
- T/C (dose: 4.6 mg/kg/injection, schedule: Q01DX009 (ip), vehicle: saline): 108 % of control

SMILES: O=C(CC(c1ccccc1)C1CCCN(c2ccccc2)S1(=O)=O)c1ccccc1 (stereo not drawn)
- T/C [5]: 109 % of control
- T/C [6]: 114 % of control
- T/C [7]: 97 % of control

SMILES: NC(CSC(c1ccccc1)(c1ccccc1)c1ccc(Br)cc1)C(=O)O (stereo not drawn)
- T/C (dose: 5.0 mg/kg/injection, schedule: Q04DX003 (ip), vehicle: Klucel (hydroxypropylcellulose) (HPC)): 118 % of control
- T/C (dose: 6.25 mg/kg/injection, schedule: Q01DX009 (ip), vehicle: saline with Tween-80): 190 % of control
- T/C (dose: 12.5 mg/kg/injection, schedule: Q01DX009 (ip), vehicle: saline with Tween-80): 245 % of control
- T/C [4]: 270 % of control
- T/C (dose: 25.0 mg/kg/injection, schedule: Q04DX003 (ip), vehicle: saline): 165 % of control
- T/C (dose: 30.0 mg/kg/injection, schedule: Q04DX003 (ip), vehicle: Klucel (hydroxypropylcellulose) (HPC)): 154 % of control
- T/C (dose: 45.0 mg/kg/injection, schedule: Q04DX003 (ip), vehicle: other): 166 % of control
- T/C (dose: 50.0 mg/kg/injection, schedule: Q04DX003 (ip), vehicle: saline with Tween-80): 176 % of control
- T/C (dose: 50.0 mg/kg/injection, schedule: Q04DX003 (ip), vehicle: saline): 204 % of control and 210 % of control
- T/C (dose: 65.0 mg/kg/injection, schedule: Q04DX003 (ip), vehicle: other): 183 % of control
- T/C [6]: 100 % of control
- T/C [10]: 170 % of control
- T/C [8]: 185 % of control
- T/C [1]: 230 % of control
- T/C (dose: 150.0 mg/kg/injection, schedule: Q04DX003 (ip), vehicle: other): 250 % of control
- T/C [9]: 100 % of control

SMILES: COc1cccc(N)c1N
- T/C (dose: 50.0 mg/kg/injection, schedule: Q01DX009 (ip), vehicle: suspension in saline): 124 % of control
- T/C (dose: 200.0 mg/kg/injection, schedule: Q01DX009 (ip), vehicle: suspension in saline): 98 % of control

SMILES: O=C(c1ccccc1)C1C(c2ccccc2)N1CCl (stereo not drawn)
- T/C [11]: 113 % of control
- T/C (dose: 200.0 mg/kg/injection, schedule: Q04DX003 (ip), vehicle: Klucel (hydroxypropylcellulose) (HPC)): 100 % of control
- T/C (dose: 400.0 mg/kg/injection, schedule: Q04DX003 (ip), vehicle: Klucel (hydroxypropylcellulose) (HPC)): 100 % of control
